Measurements published in PubChem BioAssay AID270 (DTP/NCI, 2004).
Inconclusive results are not listed.

Tested on: BDF1 mice, s.c. Lewis lung carcinoma, T/C %
Assay: NCI In Vivo Anticancer Drug Screen. Data for tumor model Lewis Lung Carcinoma (subcutaneous) in B6D2F1 (BDF1) mice
How it was run: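 Tumor-bearing mice were treated with test compound, and either survival or tumor size was recorded. Values are the treated-group measurement divided by that of the vehicle-treated control group.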

## CCCCCCCCCCCCCCCCCCOC(=O)CCSCCC(=O)OCCCCCCCCCCCCCCCCCC
endpoint: mean tumor weight, dose: 133.0 mg/kg/injection, schedule: Q01DX011 (ip), vehicle: carboxymethylcellulose (CMC), higher = larger tumour
  T/C: 117 % of control
endpoint: mean tumor weight, dose: 200.0 mg/kg/injection, schedule: Q01DX011 (ip), vehicle: carboxymethylcellulose (CMC), higher = larger tumour
  T/C: 88 % of control
endpoint: mean tumor weight, dose: 300.0 mg/kg/injection, schedule: Q01DX011 (ip), vehicle: carboxymethylcellulose (CMC), higher = larger tumour
  T/C: 101 % of control
endpoint: mean tumor weight, dose: 450.0 mg/kg/injection, schedule: Q01DX011 (ip), vehicle: carboxymethylcellulose (CMC), higher = larger tumour
  T/C: 86 % of control
endpoint: mean tumor weight, dose: 500.0 mg/kg/injection, schedule: Q01DX011 (ip), vehicle: other, higher = larger tumour
  T/C: 165 % of control
endpoint: mean tumor weight, dose: 750.0 mg/kg/injection, schedule: Q01DX011 (ip), vehicle: other, higher = larger tumour
  T/C: 121 % of control

## COc1cc2nccc3c4ccccc4n(c1=O)c23
endpoint: median survival time, dose: 50.0 mg/kg/injection, schedule: Q01DX009 (ip), vehicle: Klucel (hydroxypropylcellulose) (HPC), higher = longer survival
  T/C: 114 % of control
endpoint: median survival time, dose: 100.0 mg/kg/injection, schedule: Q01DX009 (ip), vehicle: Klucel (hydroxypropylcellulose) (HPC), higher = longer survival
  T/C: 110 % of control
endpoint: median survival time, dose: 200.0 mg/kg/injection, schedule: Q01DX009 (ip), vehicle: Klucel (hydroxypropylcellulose) (HPC), higher = longer survival
  T/C: 120 % of control

## C=C1C(=O)OC2C1CCC(C)C1CCC(=O)OC12C (centres undefined)
endpoint: median survival time, dose: 1.6 mg/kg/injection, schedule: Q01DX009 (ip), vehicle: Klucel (hydroxypropylcellulose) (HPC), higher = longer survival
  T/C: 95 % of control
endpoint: median survival time, dose: 3.12 mg/kg/injection, schedule: Q01DX009 (ip), vehicle: Klucel (hydroxypropylcellulose) (HPC), higher = longer survival
  T/C: 102 % of control
endpoint: median survival time, dose: 3.13 mg/kg/injection, schedule: Q01DX009 (ip), vehicle: Klucel (hydroxypropylcellulose) (HPC), higher = longer survival
  T/C: 104 % of control
endpoint: median survival time, dose: 6.25 mg/kg/injection, schedule: Q01DX009 (ip), vehicle: Klucel (hydroxypropylcellulose) (HPC), higher = longer survival
  T/C: 102 % of control
endpoint: median survival time, dose: 12.5 mg/kg/injection, schedule: Q01DX009 (ip), vehicle: Klucel (hydroxypropylcellulose) (HPC), higher = longer survival
  T/C: 106 % of control
endpoint: median survival time, dose: 25.0 mg/kg/injection, schedule: Q01DX009 (ip), vehicle: Klucel (hydroxypropylcellulose) (HPC), higher = longer survival
  T/C: 92 % of control

## O=NN(CCCl)C(=O)NC1CCS(=O)(=O)C1 (centres undefined) (tested in a mixture with another compound)
endpoint: median survival time, dose: 11.0 mg/kg/injection, schedule: Q01DX001 (ip), vehicle: saline with Tween-80, higher = longer survival
  T/C: 88 % of control
endpoint: median survival time, dose: 16.0 mg/kg/injection, schedule: Q01DX001 (ip), vehicle: saline with Tween-80, higher = longer survival
  T/C: 100 % of control
endpoint: median survival time, dose: 30.0 mg/kg/injection, schedule: Q01DX001 (ip), vehicle: saline with Tween-80, higher = longer survival
  T/C: 92 % of control

## CCCCn1cnc2c(SC)nc(N)nc21
endpoint: mean tumor weight, dose: 30.0 mg/kg/injection, schedule: Q01DX011 (ip), vehicle: other, higher = larger tumour
  T/C: 79 % of control
endpoint: mean tumor weight, dose: 60.0 mg/kg/injection, schedule: Q01DX011 (ip), vehicle: other, higher = larger tumour
  T/C: 103 % of control
endpoint: mean tumor weight, dose: 120.0 mg/kg/injection, schedule: Q01DX011 (ip), vehicle: other, higher = larger tumour
  T/C: 124 % of control

## CCN(CC)CCN1C(=O)c2cccc3cccc(c23)C1=O
endpoint: mean tumor weight, dose: 48.0 mg/kg/injection, schedule: Q01DX011 (ip), vehicle: saline, higher = larger tumour
  T/C: 111 % of control
endpoint: mean tumor weight, dose: 73.0 mg/kg/injection, schedule: Q01DX011 (ip), vehicle: saline, higher = larger tumour
  T/C: 87 % of control
endpoint: mean tumor weight, dose: 110.0 mg/kg/injection, schedule: Q01DX011 (ip), vehicle: saline, higher = larger tumour
  T/C: 69 % of control

## COC1=C(N2CC2)C(=O)C(OC)=C(N2CC2)C1=O
endpoint: median survival time, dose: 0.25 mg/kg/injection, schedule: Q01DX009 (ip), vehicle: Klucel (hydroxypropylcellulose) (HPC), higher = longer survival
  T/C: 97 % of control
endpoint: median survival time, dose: 0.5 mg/kg/injection, schedule: Q01DX009 (ip), vehicle: Klucel (hydroxypropylcellulose) (HPC), higher = longer survival
  T/C: 106 % of control
endpoint: median survival time, dose: 1.0 mg/kg/injection, schedule: Q01DX009 (ip), vehicle: Klucel (hydroxypropylcellulose) (HPC), higher = longer survival
  T/C: 101 % of control
endpoint: median survival time, dose: 2.0 mg/kg/injection, schedule: Q01DX009 (ip), vehicle: Klucel (hydroxypropylcellulose) (HPC), higher = longer survival
  T/C: 111 % of control
endpoint: median survival time, dose: 4.0 mg/kg/injection, schedule: Q01DX009 (ip), vehicle: Klucel (hydroxypropylcellulose) (HPC), higher = longer survival
  T/C: 124 % of control

## CC(C)=CCCC(C)CCO (centres undefined)
endpoint: mean tumor weight, dose: 100.0 mg/kg/injection, schedule: Q01DX011 (ip), vehicle: carboxymethylcellulose (CMC), higher = larger tumour
  T/C: 72 % of control

## O=C(Nc1ccc(C2=NCCCN2)cc1)c1ccc(C(=O)Nc2ccc(C3=NCCCN3)cc2)cc1
endpoint: mean tumor weight, dose: 0.25 mg/kg/injection, schedule: Q01DX011 (ip), vehicle: other, higher = larger tumour
  T/C: 73 % of control
endpoint: mean tumor weight, dose: 0.5 mg/kg/injection, schedule: Q01DX011 (ip), vehicle: other, higher = larger tumour
  T/C: 98 % of control
endpoint: mean tumor weight, dose: 1.0 mg/kg/injection, schedule: Q01DX011 (ip), vehicle: other, higher = larger tumour
  T/C: 85 % of control
endpoint: mean tumor weight, dose: 2.0 mg/kg/injection, schedule: Q01DX011 (ip), vehicle: other, higher = larger tumour
  T/C: 73 % of control
endpoint: mean tumor weight, dose: 4.0 mg/kg/injection, schedule: Q01DX011 (ip), vehicle: other, higher = larger tumour
  T/C: 7 % of control

## Nc1nc(SN=Nc2ccc(S(=O)(=O)O)cc2)c2[nH]cnc2n1
endpoint: mean tumor weight, dose: 1.0 mg/kg/injection, schedule: Q01DX011 (ip), vehicle: saline, higher = larger tumour
  T/C: 78 % of control
endpoint: mean tumor weight, dose: 5.0 mg/kg/injection, schedule: Q01DX011 (ip), vehicle: saline, higher = larger tumour
  T/C: 65 % of control
endpoint: mean tumor weight, dose: 9.0 mg/kg/injection, schedule: Q01DX011 (ip), vehicle: saline, higher = larger tumour
  T/C: 40 % of control
endpoint: mean tumor weight, dose: 15.0 mg/kg/injection, schedule: Q01DX011 (ip), vehicle: saline, higher = larger tumour
  T/C: 40 % of control
